Data: PMC5651866, “Halogenated Chrysins Inhibit Dengue and Zika Virus Infectivity” (Scientific Reports, 2017)

Tests used:
[1] = Cytotoxicity study (CellTiter 96 AQueous One) in THP-1 cells; assay type: cell-based; details: human, THP-1 cells, read-out: Cells viability (%, means ± SEM) THP-1
Description: The cytotoxicity of active compounds was tested on LLC-MK2, Vero, THP-1, HEK-293, HepG2 and C6/36 cell lines. Each cell line was seeded at 1 × 10^4 cells per well in 96-well plates and incubated overnight. The compounds were added at the indicated concentrations and the cells were incubated for 48 h, unless indicated otherwise. Cell viability was analyzed using CellTiter 96® AQueous One Solution Cell Proliferation Assay kit (Promega, Wisconsin-Madison, USA) according to manufacturer’s protocol. The plate was read at the A 450 in a VICTORTM × 3 microplate reader (PerkinElmer, Massachusetts, USA). Percent cell viability in compound-treated wells was calculated using reference DMSO-treated cells as a 100% cell viability control. The CC50 values of LLC/MK2 cells were calculated using nonlinear regression analysis. Results were reported as means and standard error of the means (SEM) of CC50 values of three independent experiments in which each drug concentration was tested in triplicate.

DENV2 = assay: Attachment inhibition study, DENV2 with LLC/MK2 cells; assay type: cell-based, Dengue virus; details: 10 µM
Description: (§1) We further explored whether the compound would block the viral infectivity by neutralization. We set up the attachment inhibition assay by incubating DENV2 with LLC/MK2 cells at 4 °C for 1 h and FV13 was added before adsorption (pre-attachment), simultaneous with adsorption (co-attachment), and after adsorption (post-attachment) (Fig. 5A). DMSO was used as a mock treatment and added in parallel to FV13 to the experiment. Cells were incubated until cytopathic effects appeared under microscope (Fig. 5B). Supernatants and cells were then analyzed by plaque titration (Fig. 5C) and RT-qPCR (Fig. 5D), respectively. […] Therefore, the major targets of FV13 inhibition appear to function after attachment, possibly at the fusion or translation steps. […] (Supplementary 1). Therefore, fusion was unlikely the major target of FV13. We concluded that one of the major targets of FV13 functions early after infection and attachment and fusion are not critically affected. Flavivirus translation initiates within 1 to 5 hpi[26].
After supernatant collection, the remaining cells in experimental plates were extracted for viral RNAs using TRIzol reagent (Invitrogen, California, USA) according to the manufacturer’s protocol. The samples were loaded into the Direct-zol™ RNA MiniPrep (Zymo research, California, USA) and quantified by Nanodrop spectrophotometry (Eppendorf, New York, USA). The RT-qPCR was performed with a Step-OnePlus Real-Time PCR System (Applied Biosystems, California, USA.) with 1 × Power SYBRGreen PCR Master Mix, 400 nM each of capsid primers[40] or 250 nM of NS1 primers[41] and 0.1 µg of total RNA. The reactions were then cycled at 48 °C 30 min and 95 °C 10 min, followed by 45 cycles of 95 °C for 20 s (denaturation), 55 °C for 30 s (annealing), 72 °C for 30 s (extension). Each sample was analyzed in triplicated and results were confirmed by two independent experiments.
The attachment assay was adapted from Lani et al., 2016 and Jin et al., 2015 [42],[43]. Briefly, LLC/MK2 cells were seeded in 24-well plates and incubated as previously described. […]

DENV4 (c0036) = assay: Antiviral efficacy (EC50) in virus infected LLC/MK2 cells, plaque assay; assay type: cell-based, Dengue virus
Description: (§2) Compound at various concentrations were added to virus infected LLC/MK2 cells and viral titers were accessed by plaque titration of supernatants as previously described.
(§3) LLC/MK2 cells were seeded at 5 × 10^4 cells into each well of 24-well plate and incubated overnight at 37 °C under 5% CO2. Cells were infected with DENV2 at the multiplicity of infection (M.O.I.) of 0.1, unless indicated otherwise, for 1 h with gentle rocking every 15 min. Cells were washed with phosphate buffer saline (PBS) and incubated with 1 ml of MEM medium supplemented with 1% FBS as previously described. The compounds were prepared in dimethylsulfoxide (DMSO) at the indicated concentrations before addition to viral infected cells. Supernatants were collected after 5 day incubation and analyzed by plaque titration[9].
(§4) Compounds were prepared in DMSO at 8–12 different concentrations and added to virus infected cells as previously described. Supernatants were collected and the EC50 values were calculated from nonlinear regression analysis.

[2] = test system: DENV2 infected C6/36 cells; assay: Fusion inhibition study in DENV2 infected C6/36 cells; assay type: cell-based, Dengue virus; details: 10 and 25 µM; M.O.I. of 0.02; in words
Description: as §1
The assay protocol was adapted from Ichiyama et al., 2013 and Poh et al., 20091,2. C6/36 cells were seeded at 2x10^5 cells per well in 24-well plate and incubated overnight. Cells were infected with DENV2 (M.O.I. of 0.02) at 28 °C for 1 h with gentle rocking every 15 min. […] The cells were closely monitored under microscope. […]

[3] = Viability of DENV2/BHK-21 replicon cells; assay type: cell-based; details: hamster, 5 and 10 µM, read-out: viable replicon cells
Description: Next, we studied FV13 inhibition in a DENV2 replicon replication system to investigate whether translation and replication could be implicated as drug targets. BHK-21/DENV2 replicon cells[28] were treated with 5 and 10 µM FV13 and incubated for 72 h before measuring replication efficiency by quantifying replicon RNA. Ribavirin, a known dengue virus replication inhibitor[29], was used as a positive control.
Figure 6 Replicon inhibition study. (A) DENV2/BHK-21 replicon cells were treated with FV13 or ribavirin for 72 h. Percent inhibition was calculated from RT-qPCR of extracted RNA. Error bars represented standard error of means (SEM) from two independent experiments with triplicate samples. Asterisks indicated statistical significance in paired t-test as follows; *p-value < 0.05, **p-value < 0.01, ***p-value < 0.001 compared to 1% DMSO negative control. (B) Percent DENV2/BHK-21 replicon cell viability at 72 h under 5 and 10 µM FV13 treatment. Error bars represented standard error of means (SEM) from three independent experiments, in which each experiment was performed in triplicate.

DENV2 (NGC) = assay: Antiviral efficacy (EC50) in virus infected LLC/MK2 cells, plaque assay; assay type: cell-based, Dengue virus
Description: as §2, §3, §4

O=c1cc(-c2ccccc2)oc2c(Br)c(O)c(Br)c(O)c12 [FV13, 6,8-dibromo-5,7-dihydroxyflavone]
viability at 48 h, 10 µM ([1]; 10 μM): > 100%
viability at 48 h, 25 µM ([1]; 25 μM): 86.9 ± 2.1%
viral RNA reduction (DENV2; post-attachment, intracellular RNA, RT-qPCR): 64.07 ± 3.37%
plaque titer reduction (DENV2; post-attachment, supernatants, 2 days): 40.59 ± 2.83%
interference with pre- or co-attachment steps (DENV2; pre-attachment and co-attachment, in words): did not interfere with either pre- or co-attachment steps
S.I. Selectivity index (CC50/EC50) (DENV4 (c0036); DENV4 (c0036), CC50 in LLC/MK2): 25.12
EC50 (DENV4 (c0036); Dengue virus, DENV4, LLC-MK2): 1780 ± 720 nM
fusion inhibition (number of fused cells or syncytial phenomenon) [2]: no difference in the number of fused cells or syncytial phenomenon
viability at 72 h [3]: > 99%
S.I. Selectivity index (CC50/EC50) (DENV2 (NGC); DENV2 (NGC), CC50 in LLC/MK2): 30.43
EC50 (DENV2 (NGC); Dengue virus, DENV2, LLC-MK2): 1470 ± 860 nM
